According to patent publication US7235588B2, “Method for reducing hypertension and heart failure” (The Research Foundation of State University of New York, priority 2001, dated 2007):

How the values were obtained:
angiotensinogen mRNA = assay: Angiotensinogen mRNA in hearts subjected to ischemia/reperfusion (primer extension assay); design: species or system rat; conditions: 30 min ischemia and 120 min reperfusion
Description: Ischemia was induced by a modified Langendorf-reperfusion method in rat hearts. Hearts from adult male rats were randomly divided into 4 groups and subjected to ischemia/reperfusion. In the ischemic group, hearts were perfused with Krebs-Henseleit buffer for 60 minutes, followed by 30 minutes of global ischemia. In the ischemic/reperfused group, hearts were perfused for 60 minutes, followed by 30 minutes of global ischemia and 120 minutes of reperfusion. Control group hearts were perfused for the same lengths of time.
Rat hearts subjected to ischemia/reperfusion were tested to determine whether activation of the renin-angiotensin system, as reflected by an increase in angiotensinogen mRNA, occurs in ischemic injury. The level of angiotensinogen mRNA was analyzed by primer extension assay using gene-specific DNA probes. A DNA primer spanning the complementary sequence of the rat angiotensinogen cDNA between nucleotides 302 and 279 (5′-[…]-3′) SEQ ID NO: 1 was end-labeled and used to evaluate the expression of angiotensinogen mRNA in total RNA isolated from the rat heart. The primer extension protocol was performed according to instructions provided by the supplier (Progema). Rat GAPDH cDNA specific primer was used as control. There was a marked increase in mRNA level after 30 minutes of ischemia and 120 minutes of reperfusion (FIG. 5A). […]

[1] = system: St-domain/STAT binding activity; assay: Electrophoretic gel mobility-shift assay of St-domain/STAT binding in heart nuclear extracts; design: species or system rat; conditions: hearts, 30 min ischemia/120 min reperfusion
From the text: Nuclear extracts were examined in hearts subjected to global ischemia to determine whether there is enhanced STAT binding activity to the St domain of the angiotensinogen promoter. The nuclear heart extracts were examined by the electrophoretic gel mobility-shift assay that exployed the use of the chemically synthesized oligonucleotide sequence of the St domain. The St-domain DNA probe for protein binding was a double-stranded oligonucleotide containing the sequence 5′-GGGTtcCTGGAAGGG-3′ SEQ. ID NO: 2, and complementary strand 5′-CCCTTCCAGgaACCC-3′ SEQ. ID NO: 3, respectively. These probes were end-labeled by polynucleotide kinase and [γ-^32P]ATP. Binding reaction mixture containing 0.5 ng of labeled DNA (1,000 cpm), 2 μg of poly(dI-C), and 1-12 μg of protein in buffer containing 20 mM Hepes, 3% glycerol, 1.5 mM MgCl2, 1 mM DTT, 2 mM EDTA and 50 mM KCl, pH 7.5 was allowed to incubate at 4° C. for 30 min. The reactions were analyzed by electrophoresis on 8% polyacrylanide gel in 0.375× TBE ([…] Tris borate, pH 8.7 and 1.0 mM EDTA). After electrophoresis, the gels were dried and subjected to autoradiography. […] (FIG. 5B). The activation of STATs and the consequent binding to the St-domain in the angiotensinogen promoter accounts for the increase in transcription of angiotensinogen mRNA. […]

[2] = system: hearts subjected to ischemia/reperfusion; conditions: cited from earlier work

## CCCCc1nc(Cl)c(CO)n1Cc1ccc(-c2ccccc2-c2nn[nH]n2)cc1 [losartan]
Angiotensinogen mRNA
  angiotensinogen mRNA level: reduced it almost entirely to the level of the control sample
[1]
  St-domain/STAT binding activity (STAT/DNA complex formation): almost entirely abolished

## N#C/C(=C\c1ccc(O)c(O)c1)C(=O)NCCCCc1ccccc1 [Tyrphostin AG556]
[2]
  cardioprotection / myocardial damage due to ischemia: reduces myocardial damage due to ischemia
